The source of these data is ChEMBL document CHEMBL5465560, “Selectivity Literature for EUbOPEN Chemogenomic Library” (2024).

Assay [1] addresses Calcium/calmodulin-dependent protein kinase kinase 2 (Homo sapiens) (UniProt Q96RR4). The following applies: at 10 µM.
In assay [2] the target is T1, Cyclin-G-associated kinase (Homo sapiens) (UniProt O14976).
T1 sequence (whole entry): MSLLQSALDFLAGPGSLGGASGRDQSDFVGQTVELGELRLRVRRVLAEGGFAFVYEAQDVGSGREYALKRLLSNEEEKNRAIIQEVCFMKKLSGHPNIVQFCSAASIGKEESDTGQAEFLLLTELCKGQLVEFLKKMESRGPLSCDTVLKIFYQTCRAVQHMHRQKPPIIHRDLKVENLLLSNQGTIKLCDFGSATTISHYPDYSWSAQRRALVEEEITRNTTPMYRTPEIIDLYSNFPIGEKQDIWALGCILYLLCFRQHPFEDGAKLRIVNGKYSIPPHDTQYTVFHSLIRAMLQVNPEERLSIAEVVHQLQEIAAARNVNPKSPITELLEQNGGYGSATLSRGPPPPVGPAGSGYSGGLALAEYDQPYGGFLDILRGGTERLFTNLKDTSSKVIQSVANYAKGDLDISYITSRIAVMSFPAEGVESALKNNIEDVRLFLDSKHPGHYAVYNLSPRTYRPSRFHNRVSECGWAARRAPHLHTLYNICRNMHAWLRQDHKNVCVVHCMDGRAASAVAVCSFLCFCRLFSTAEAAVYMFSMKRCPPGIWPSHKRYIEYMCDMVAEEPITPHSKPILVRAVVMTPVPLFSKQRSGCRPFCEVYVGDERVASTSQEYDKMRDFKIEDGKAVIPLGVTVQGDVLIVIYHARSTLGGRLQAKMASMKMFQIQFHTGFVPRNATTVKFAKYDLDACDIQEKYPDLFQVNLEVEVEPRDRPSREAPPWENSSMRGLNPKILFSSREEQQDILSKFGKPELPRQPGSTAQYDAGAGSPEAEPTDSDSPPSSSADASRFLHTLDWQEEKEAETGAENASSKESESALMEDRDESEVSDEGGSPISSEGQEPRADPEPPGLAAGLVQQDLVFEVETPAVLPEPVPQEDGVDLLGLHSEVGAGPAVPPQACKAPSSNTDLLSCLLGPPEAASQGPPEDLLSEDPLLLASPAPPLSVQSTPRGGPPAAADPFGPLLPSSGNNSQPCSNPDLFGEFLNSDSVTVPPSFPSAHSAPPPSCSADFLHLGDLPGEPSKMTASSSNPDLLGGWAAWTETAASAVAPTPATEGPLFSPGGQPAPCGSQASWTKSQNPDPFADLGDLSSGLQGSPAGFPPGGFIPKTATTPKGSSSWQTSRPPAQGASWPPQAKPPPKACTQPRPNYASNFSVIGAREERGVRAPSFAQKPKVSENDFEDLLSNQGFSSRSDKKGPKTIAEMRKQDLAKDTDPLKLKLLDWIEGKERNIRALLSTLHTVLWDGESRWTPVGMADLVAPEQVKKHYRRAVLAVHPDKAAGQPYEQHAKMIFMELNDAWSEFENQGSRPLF
As to the kind of experiment: Selectivity interaction (KinomeScan (DiscoverX)) EUB0000655a GAK. The following applies: at 10 µM.

The target of assay [3] is Calcium/calmodulin-dependent protein kinase type 1D (Homo sapiens) (UniProt Q8IU85). As to the kind of experiment: Selectivity interaction (KinomeScan (DiscoverX)) EUB0000666a CAMK1D. The following applies: at 10 µM.
Chain of Calcium/calmodulin-dependent protein kinase type 1D (Homo sapiens) (Q8IU85 whole entry, looked up): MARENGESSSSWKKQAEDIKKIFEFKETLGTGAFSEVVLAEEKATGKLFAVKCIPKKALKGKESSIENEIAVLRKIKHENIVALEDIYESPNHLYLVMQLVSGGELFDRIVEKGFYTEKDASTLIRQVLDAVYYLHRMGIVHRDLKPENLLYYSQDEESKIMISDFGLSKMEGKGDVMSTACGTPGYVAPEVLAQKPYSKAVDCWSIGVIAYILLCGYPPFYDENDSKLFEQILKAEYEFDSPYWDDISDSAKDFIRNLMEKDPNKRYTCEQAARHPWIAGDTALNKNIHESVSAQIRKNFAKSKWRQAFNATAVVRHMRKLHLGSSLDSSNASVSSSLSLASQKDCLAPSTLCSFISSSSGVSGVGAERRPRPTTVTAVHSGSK
Assay [4] addresses Ribosomal protein S6 kinase alpha-1 (Homo sapiens, UniProt Q15418). As to the kind of experiment: Selectivity interaction (KinomeScan (DiscoverX)) EUB0001619a RPS6KA1. The following applies: at 1 µM.
Assay [5] addresses T2, Mitogen-activated protein kinase kinase kinase 6 (Homo sapiens) (UniProt O95382).
T2 sequence (whole entry): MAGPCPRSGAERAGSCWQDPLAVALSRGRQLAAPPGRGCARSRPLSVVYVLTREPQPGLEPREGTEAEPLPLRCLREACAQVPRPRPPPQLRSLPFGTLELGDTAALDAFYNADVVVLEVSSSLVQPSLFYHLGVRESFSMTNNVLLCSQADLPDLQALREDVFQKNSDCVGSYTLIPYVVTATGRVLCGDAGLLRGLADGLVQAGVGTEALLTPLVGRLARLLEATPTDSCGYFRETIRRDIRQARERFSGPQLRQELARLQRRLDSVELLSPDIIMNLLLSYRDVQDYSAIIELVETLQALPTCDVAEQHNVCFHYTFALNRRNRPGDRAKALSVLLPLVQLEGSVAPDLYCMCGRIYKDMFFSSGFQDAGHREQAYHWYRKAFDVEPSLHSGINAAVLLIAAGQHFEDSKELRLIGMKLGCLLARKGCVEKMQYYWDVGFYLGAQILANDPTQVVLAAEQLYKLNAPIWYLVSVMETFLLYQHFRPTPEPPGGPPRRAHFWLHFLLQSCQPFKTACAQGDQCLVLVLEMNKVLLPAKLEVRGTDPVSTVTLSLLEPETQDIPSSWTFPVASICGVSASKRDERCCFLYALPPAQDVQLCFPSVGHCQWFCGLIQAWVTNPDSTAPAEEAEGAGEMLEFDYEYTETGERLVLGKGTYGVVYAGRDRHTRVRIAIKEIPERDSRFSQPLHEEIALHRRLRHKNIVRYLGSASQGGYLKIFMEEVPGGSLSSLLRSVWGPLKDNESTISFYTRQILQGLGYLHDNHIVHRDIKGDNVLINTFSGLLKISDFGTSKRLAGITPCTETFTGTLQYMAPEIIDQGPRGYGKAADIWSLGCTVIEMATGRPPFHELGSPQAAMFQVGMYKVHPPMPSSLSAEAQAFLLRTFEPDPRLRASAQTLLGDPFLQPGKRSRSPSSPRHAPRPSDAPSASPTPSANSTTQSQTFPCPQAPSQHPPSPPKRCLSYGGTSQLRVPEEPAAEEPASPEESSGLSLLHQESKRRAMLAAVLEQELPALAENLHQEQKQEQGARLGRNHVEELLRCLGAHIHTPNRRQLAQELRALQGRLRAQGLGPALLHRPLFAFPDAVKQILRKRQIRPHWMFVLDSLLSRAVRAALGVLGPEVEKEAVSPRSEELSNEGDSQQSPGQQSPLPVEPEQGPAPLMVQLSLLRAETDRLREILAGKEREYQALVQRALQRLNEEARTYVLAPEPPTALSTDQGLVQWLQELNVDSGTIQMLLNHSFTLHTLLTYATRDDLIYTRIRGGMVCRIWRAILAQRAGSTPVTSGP
The assay is described as follows: Selectivity interaction (ActivX KiNativ screen (ex vivo kinase selectivity in human PBMCs)) EUB0001619a MAP3K6. The following applies: PBMC, at 1 µM. It counts as cell-based.

Assay [6] deals with Tyrosine-protein kinase CSK (Homo sapiens) (UniProt P41240). The assay is described as follows: Selectivity interaction (KinomeScan (DiscoverX)) EUB0000618a CSK. The following applies: at 10 µM.
Chain of Tyrosine-protein kinase CSK (Homo sapiens) (P41240 2-450 limits assumed): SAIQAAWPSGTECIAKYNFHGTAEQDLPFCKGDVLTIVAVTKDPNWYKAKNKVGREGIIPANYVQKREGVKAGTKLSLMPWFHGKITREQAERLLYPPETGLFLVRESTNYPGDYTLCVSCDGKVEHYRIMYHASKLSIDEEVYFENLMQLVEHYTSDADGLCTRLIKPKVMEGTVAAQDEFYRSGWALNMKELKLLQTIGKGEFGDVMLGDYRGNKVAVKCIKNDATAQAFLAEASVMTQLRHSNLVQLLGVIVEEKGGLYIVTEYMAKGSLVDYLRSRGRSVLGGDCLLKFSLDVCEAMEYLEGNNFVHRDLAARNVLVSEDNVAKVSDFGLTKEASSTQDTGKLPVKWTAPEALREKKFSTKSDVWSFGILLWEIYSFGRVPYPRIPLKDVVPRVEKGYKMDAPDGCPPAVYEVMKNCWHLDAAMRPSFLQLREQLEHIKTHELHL

Chain of Ribosomal protein S6 kinase alpha-1 (Q15418 whole entry): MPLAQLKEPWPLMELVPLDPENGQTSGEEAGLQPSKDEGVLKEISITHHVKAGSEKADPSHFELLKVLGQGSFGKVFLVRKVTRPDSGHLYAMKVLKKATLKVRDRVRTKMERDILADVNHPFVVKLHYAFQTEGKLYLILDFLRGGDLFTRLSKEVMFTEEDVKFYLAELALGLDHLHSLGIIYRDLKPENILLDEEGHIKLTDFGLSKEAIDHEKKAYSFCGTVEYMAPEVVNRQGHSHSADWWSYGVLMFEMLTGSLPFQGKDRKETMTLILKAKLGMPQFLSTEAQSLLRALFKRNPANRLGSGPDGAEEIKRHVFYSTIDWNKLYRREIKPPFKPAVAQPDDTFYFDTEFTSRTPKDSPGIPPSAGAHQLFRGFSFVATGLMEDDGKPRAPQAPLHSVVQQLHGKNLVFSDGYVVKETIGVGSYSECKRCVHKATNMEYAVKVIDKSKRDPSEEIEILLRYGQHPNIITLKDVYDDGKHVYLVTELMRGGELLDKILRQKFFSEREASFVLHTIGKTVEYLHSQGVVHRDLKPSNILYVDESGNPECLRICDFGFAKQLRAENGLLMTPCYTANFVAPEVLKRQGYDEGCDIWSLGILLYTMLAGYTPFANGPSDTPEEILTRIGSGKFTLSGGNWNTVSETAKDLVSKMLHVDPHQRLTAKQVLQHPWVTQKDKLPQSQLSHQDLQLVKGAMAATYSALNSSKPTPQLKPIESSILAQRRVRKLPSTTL
Chain of Calcium/calmodulin-dependent protein kinase kinase 2 (Homo sapiens) (Q96RR4 2-588 limits assumed): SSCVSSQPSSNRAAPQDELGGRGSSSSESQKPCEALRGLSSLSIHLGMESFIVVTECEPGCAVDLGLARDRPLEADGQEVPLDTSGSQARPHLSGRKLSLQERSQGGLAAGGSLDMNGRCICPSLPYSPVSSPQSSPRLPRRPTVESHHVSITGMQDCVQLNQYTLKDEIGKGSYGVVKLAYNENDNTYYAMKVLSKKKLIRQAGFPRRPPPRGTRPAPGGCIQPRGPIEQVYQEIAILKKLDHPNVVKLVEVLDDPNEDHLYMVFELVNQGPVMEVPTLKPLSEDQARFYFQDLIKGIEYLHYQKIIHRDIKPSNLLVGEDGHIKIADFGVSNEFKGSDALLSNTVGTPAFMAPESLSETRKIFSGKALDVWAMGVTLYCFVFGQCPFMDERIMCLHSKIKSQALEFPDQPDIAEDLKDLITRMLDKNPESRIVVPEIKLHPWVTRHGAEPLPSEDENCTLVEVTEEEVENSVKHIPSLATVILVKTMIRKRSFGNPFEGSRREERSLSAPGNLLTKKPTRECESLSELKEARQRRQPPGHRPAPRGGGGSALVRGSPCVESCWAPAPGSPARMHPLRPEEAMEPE

For `CCN(CC)CCCCNc1ncc2cc(-c3cc(OC)cc(OC)c3)c(NC(=O)NC(C)(C)C)nc2n1`, the % of control in assay [1] was found to be 100%. Regarding `CN(C)CCOc1ccc(-c2nc(-c3ccncc3)c(-c3ccc4c(c3)CC/C4=N\O)[nH]2)cc1`, in assay [2], the % of control is 25%. As to `O=C(NOC[C@H](O)CO)c1ccc(F)c(F)c1Nc1ccc(I)cc1F`, in assay [3], the % of control was determined as 89%. Regarding `N#Cc1cccc(-c2c[nH]c3ncnc(N4CCOCC4)c23)c1`, in assay [4], the % of control was found to be 100%. In assay [5], this compound had a % of inhibition of 21%. In assay [6], `O[C@H]1CC[C@H](Nc2ncc3nc(Nc4c(F)cc(F)cc4F)n([C@H]4CCOC4)c3n2)CC1` returned a % of control of 98%.
